Values after ≈ are worked out from the molar mass of the structure shown. Where two headings read alike, the source gives them in different places.
Assays:
CYP2C9 = CYP2C9 (Homo sapiens, UniProt P11712); assay: CYP450 inhibition in HLM
[1] = Metabolic stability in human hepatocytes
[2] = target: kinase named in conditions (Homo sapiens, UniProt P48736); assay: SelectScreen kinase profiling, SSBK Adapta SP Technology; type: biochemical; conditions: PIK3CG (p110 gamma), 10 μM
[3] = target: kinase named in conditions (Homo sapiens, UniProt O60331); assay: as above; type: biochemical; conditions: PIP5K1C, 10 μM
[4] = target: kinase named in conditions (Homo sapiens, UniProt Q8NEB9); assay: as above; type: biochemical; conditions: PIK3C3 (hVPS34), 10 μM
[5] = target: kinase named in conditions (Homo sapiens, UniProt Q8TF76); assay: as above; type: biochemical; conditions: GSG2 (Haspin), 10 μM
[6] = target: kinase named in conditions (Homo sapiens, UniProt O00750); assay: as above; type: biochemical; conditions: PIK3C2B (PI3K-C2 beta), 10 μM
[7] = target: kinase named in conditions (Homo sapiens, UniProt O60285); assay: as above; type: biochemical; conditions: NUAK1 (ARK5), 10 μM
[8] = target: kinase named in conditions (Homo sapiens, UniProt P42338); assay: as above; type: biochemical; conditions: 10 μM
[9] = target: kinase named in conditions (Homo sapiens, UniProt Q8TCG2); assay: as above; type: biochemical; conditions: PI4K2B (PI4K2 beta), 10 μM
[10] = target: kinase named in conditions (Homo sapiens, UniProt Q14012); assay: as above; type: biochemical; conditions: CAMK1 (CaMK1), 10 μM
[11] = target: kinase named in conditions (Homo sapiens, UniProt P50613); assay: as above; type: biochemical; conditions: CDK7/cyclin H/MNAT1, 10 μM
[12] = target: kinase named in conditions (Homo sapiens, UniProt Q9BTU6); assay: as above; type: biochemical; conditions: PI4K2A (PI4K2 alpha), 10 μM
[13] = target: kinase named in conditions (Homo sapiens, UniProt Q99755); assay: as above; type: biochemical; conditions: PIP5K1A, 10 μM
[14] = target: kinase named in conditions (Homo sapiens, UniProt P50750); assay: as above; type: biochemical; conditions: CDK9/cyclin T1, 10 μM
[15] = target: kinase named in conditions (Homo sapiens, UniProt P42356); assay: as above; type: biochemical; conditions: PI4KA (PI4K alpha), 10 μM
[16] = target: kinase named in conditions (Homo sapiens, UniProt P42336); assay: as above; type: biochemical; conditions: 10 μM
[17] = target: kinase named in conditions (Homo sapiens, UniProt O00329); assay: as above; type: biochemical; conditions: PIK3CD/PIK3R1 (p110 delta/p85 alpha), 10 μM
[18] = target: kinase named in conditions (Homo sapiens, UniProt O15111); assay: as above; type: biochemical; conditions: CHUK (IKK alpha), 10 μM
[19] = target: kinase named in conditions (Homo sapiens, UniProt Q5S007, G2019S); assay: as above; type: biochemical; conditions: LRRK2 G2019S FL, 10 μM
[20] = target: kinase named in conditions (Homo sapiens, UniProt P42336, E545K); assay: as above; type: biochemical; conditions: PIK3CA E545K/PIK3R1 (p110 alpha E545K/p85 alpha), 10 μM
[21] = target: kinase named in conditions (Homo sapiens, UniProt O75747); assay: as above; type: biochemical; conditions: PIK3C2G (PI3K-C2 gamma), 10 μM
[22] = target: kinase named in conditions (Homo sapiens, UniProt O00443); assay: as above; type: biochemical; conditions: PIK3C2A (PI3K-C2 alpha), 10 μM
[23] = test system: kinase named in conditions; assay: as above; type: biochemical
[24] = Stability in mouse liver microsomes; type: in vitro ADME; conditions: for half-life: mouse, liver microsomes, read-out: MLM Stability t1/2
[25] = Stability in human liver microsomes; type: in vitro ADME; conditions: for half-life: human, liver microsomes, read-out: HLM Stability t1/2
[26] = Metabolic stability in dog hepatocytes
[27] = Solubility in dose formulations (cosolvents); type: physicochemical
[28] = target: panel of 485 distinct kinases; assay: Kinase selectivity panel (SelectScreen); type: biochemical
CYP2D6 = CYP2D6 (Homo sapiens, UniProt P10635); assay: CYP450 inhibition in HLM
[29] = Metabolic stability in mouse hepatocytes

Chain of CYP2C9 (P11712 whole entry): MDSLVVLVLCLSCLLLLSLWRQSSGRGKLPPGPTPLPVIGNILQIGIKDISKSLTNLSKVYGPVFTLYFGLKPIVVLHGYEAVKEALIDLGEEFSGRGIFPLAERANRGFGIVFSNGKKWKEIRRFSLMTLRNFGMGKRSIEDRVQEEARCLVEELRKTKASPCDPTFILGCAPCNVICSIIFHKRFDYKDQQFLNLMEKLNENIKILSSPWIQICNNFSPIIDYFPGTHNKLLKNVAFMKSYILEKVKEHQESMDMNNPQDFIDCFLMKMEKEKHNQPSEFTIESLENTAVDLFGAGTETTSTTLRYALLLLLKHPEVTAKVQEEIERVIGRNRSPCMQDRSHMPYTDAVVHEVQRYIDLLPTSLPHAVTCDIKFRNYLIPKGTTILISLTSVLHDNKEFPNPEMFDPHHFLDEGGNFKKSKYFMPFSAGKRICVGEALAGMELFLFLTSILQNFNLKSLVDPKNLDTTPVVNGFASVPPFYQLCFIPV
Chain of CYP2D6 (P10635 whole entry): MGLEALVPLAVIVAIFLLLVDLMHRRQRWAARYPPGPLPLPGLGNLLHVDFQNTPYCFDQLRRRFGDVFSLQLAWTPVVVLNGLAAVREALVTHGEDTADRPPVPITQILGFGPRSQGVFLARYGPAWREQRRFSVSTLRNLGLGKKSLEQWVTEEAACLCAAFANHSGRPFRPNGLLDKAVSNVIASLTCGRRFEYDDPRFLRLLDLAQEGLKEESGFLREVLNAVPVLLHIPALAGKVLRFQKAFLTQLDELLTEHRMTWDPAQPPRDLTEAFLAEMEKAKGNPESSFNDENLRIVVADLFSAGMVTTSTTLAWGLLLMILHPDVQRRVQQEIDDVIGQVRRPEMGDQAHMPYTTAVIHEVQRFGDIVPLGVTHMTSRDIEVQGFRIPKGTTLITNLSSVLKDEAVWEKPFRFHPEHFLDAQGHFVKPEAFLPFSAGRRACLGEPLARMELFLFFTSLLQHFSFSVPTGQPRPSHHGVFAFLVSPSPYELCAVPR
Chain of kinase named in conditions (Homo sapiens, UniProt O00750) (O00750 whole entry): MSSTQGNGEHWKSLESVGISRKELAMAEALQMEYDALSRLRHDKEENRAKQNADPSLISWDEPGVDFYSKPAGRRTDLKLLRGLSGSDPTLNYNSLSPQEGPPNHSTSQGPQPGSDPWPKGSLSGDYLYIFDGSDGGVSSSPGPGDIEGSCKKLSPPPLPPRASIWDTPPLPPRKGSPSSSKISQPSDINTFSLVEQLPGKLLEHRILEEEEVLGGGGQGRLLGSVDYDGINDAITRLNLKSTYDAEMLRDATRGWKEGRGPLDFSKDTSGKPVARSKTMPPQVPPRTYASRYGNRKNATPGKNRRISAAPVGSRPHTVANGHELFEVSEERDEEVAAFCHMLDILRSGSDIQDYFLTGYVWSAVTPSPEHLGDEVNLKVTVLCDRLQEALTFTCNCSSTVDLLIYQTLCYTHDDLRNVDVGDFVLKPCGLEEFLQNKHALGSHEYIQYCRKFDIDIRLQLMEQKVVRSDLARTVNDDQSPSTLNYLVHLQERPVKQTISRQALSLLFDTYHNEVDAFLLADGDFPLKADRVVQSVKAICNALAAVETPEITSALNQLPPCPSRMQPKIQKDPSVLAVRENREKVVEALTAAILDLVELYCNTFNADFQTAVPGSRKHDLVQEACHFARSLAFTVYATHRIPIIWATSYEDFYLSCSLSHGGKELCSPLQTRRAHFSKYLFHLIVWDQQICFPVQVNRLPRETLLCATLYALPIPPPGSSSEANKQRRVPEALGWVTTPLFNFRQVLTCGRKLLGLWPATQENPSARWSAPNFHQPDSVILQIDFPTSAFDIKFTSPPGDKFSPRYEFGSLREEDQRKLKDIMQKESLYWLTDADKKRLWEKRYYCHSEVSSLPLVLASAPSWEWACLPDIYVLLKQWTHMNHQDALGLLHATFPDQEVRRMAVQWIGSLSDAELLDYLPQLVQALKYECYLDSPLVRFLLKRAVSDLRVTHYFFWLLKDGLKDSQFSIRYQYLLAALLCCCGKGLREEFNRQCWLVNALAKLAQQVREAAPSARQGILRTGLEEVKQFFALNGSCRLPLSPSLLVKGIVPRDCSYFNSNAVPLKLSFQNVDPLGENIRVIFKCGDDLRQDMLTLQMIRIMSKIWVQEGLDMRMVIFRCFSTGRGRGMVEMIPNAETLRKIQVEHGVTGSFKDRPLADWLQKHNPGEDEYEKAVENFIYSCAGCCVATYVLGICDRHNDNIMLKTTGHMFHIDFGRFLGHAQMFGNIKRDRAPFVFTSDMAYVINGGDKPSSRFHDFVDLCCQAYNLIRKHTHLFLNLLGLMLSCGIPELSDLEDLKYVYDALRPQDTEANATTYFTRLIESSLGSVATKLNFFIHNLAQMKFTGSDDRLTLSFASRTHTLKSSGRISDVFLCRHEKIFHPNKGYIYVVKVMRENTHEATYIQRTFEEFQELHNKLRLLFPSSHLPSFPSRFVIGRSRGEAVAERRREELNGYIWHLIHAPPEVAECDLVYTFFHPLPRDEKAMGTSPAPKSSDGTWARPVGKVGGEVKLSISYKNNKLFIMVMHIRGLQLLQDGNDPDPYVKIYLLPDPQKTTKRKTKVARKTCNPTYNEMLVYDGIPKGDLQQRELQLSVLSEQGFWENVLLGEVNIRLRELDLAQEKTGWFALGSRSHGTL
Chain of kinase named in conditions (Homo sapiens, UniProt Q8NEB9) (Q8NEB9 whole entry): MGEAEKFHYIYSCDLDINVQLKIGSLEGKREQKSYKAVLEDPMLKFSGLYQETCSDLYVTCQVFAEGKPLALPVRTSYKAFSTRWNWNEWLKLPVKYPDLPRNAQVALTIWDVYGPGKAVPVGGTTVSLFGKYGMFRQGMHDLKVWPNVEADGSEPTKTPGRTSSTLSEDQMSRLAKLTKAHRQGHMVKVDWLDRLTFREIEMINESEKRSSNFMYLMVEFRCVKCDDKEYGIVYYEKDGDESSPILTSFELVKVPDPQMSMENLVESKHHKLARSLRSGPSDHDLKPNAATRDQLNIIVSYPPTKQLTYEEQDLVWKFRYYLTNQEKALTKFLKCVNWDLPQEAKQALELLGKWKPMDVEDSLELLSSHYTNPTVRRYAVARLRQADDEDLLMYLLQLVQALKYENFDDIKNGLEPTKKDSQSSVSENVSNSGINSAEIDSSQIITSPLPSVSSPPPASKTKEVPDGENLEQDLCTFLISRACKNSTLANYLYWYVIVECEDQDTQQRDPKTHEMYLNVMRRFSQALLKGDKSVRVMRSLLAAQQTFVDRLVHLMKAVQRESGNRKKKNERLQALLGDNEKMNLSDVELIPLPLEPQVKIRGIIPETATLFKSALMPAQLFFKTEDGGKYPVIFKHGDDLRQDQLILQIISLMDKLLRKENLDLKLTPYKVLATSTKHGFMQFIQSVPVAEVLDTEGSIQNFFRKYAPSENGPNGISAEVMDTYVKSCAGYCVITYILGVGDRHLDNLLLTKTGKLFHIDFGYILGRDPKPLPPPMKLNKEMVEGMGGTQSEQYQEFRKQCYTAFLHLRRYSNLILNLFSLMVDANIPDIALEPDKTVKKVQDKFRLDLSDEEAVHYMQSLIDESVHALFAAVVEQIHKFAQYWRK
Chain of kinase named in conditions (Homo sapiens, UniProt P50613) (P50613 whole entry): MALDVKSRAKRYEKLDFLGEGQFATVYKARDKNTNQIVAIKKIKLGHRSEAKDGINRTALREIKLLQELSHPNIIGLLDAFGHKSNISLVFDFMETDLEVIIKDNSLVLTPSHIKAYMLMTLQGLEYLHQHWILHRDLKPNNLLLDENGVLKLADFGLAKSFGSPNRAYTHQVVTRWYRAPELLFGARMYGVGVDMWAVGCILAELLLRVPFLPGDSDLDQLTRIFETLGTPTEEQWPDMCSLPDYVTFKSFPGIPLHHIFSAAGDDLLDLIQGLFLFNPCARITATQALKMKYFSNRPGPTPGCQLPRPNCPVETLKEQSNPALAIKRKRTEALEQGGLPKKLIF
Chain of kinase named in conditions (Homo sapiens, UniProt P50613) (P51946 whole entry partner): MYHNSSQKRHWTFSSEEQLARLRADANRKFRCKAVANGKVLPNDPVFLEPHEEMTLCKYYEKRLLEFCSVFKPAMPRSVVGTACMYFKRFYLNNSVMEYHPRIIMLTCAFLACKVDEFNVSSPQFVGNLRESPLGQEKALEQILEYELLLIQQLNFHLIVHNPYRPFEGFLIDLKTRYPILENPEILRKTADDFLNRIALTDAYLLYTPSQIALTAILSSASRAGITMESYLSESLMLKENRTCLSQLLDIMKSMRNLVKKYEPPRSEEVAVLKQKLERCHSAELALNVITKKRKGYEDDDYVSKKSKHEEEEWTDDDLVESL
Chain of kinase named in conditions (Homo sapiens, UniProt P50613) (P51948 whole entry partner): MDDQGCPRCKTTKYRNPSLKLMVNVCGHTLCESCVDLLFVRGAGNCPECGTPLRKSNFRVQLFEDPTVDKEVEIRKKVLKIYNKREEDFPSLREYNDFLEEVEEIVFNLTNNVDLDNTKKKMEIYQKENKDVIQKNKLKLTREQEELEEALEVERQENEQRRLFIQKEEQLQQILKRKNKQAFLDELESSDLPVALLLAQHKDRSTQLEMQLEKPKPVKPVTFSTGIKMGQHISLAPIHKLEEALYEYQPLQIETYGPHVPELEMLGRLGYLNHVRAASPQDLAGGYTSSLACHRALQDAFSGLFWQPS
Chain of kinase named in conditions (Homo sapiens, UniProt Q14012) (Q14012 whole entry): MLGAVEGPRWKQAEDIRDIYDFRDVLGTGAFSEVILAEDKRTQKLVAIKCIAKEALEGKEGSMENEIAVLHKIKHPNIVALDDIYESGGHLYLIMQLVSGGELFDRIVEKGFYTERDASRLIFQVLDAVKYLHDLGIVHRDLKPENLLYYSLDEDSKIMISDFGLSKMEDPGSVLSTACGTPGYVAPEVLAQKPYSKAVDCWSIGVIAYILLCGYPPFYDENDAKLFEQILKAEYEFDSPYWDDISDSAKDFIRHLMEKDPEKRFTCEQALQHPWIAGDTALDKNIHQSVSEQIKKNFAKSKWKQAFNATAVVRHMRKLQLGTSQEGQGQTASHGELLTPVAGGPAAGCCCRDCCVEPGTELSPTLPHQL

## FC(F)(F)c1c(Cl)ccc(-n2ccnn2)c1Cl [8l, 1-(2,4-Dichloro-3-(trifluoromethyl)phenyl)-1H-1,2,3-triazole]
CYP2C9
  IC50: 19.6 µM
CYP2C9; read-out: CYP inhibition IC50, 2C9, HLM
  IC50: 15 µM
CYP2C9; read-out: IC50 CYP2C9/Diclofenac, (+)NADPH pre-incubation
  IC50: 15.4 µM
[1]
  half-life: > 3.61 h
  hepatocyte CLint: < 6.4 µL/min/1e6 cells
[2]
  inhibition at 10 µM: -15%
[3]
  inhibition at 10 µM: -2%
[4]
  inhibition at 10 µM: -5%
[5]
  inhibition at 10 µM: 10%
[6]
  inhibition at 10 µM: 8%
[7]
  inhibition at 10 µM: -3%
[8]; PIK3CB/PIK3R1 (p110 beta/p85 alpha)
  inhibition at 10 µM: 1%
[8]; PIK3CB/PIK3R2 (p110 beta/p85 beta)
  inhibition at 10 µM: 15%
[9]
  inhibition at 10 µM: 16%
[10]
  inhibition at 10 µM: 11%
[11]
  inhibition at 10 µM: -3%
[12]
  inhibition at 10 µM: 13%
[13]
  inhibition at 10 µM: 0%
[14]
  inhibition at 10 µM: -3%
[15]
  inhibition at 10 µM: -4%
[16]; PIK3CA/PIK3R1 (p110 alpha/p85 alpha)
  inhibition at 10 µM: -6%
[16]; PIK3CA/PIK3R3 (p110 alpha/p55 gamma)
  inhibition at 10 µM: 0%
[17]
  inhibition at 10 µM: -25%
[18]
  inhibition at 10 µM: 4%
[19]
  inhibition at 10 µM: 15%
[20]
  inhibition at 10 µM: 8%
[21]
  inhibition at 10 µM: 11%
[22]
  inhibition at 10 µM: -10%
[23]; DAPK1, 10 μM
  % Inhibition mean: -8%
[23]; IRAK1, 10 μM
  % Inhibition mean: -10%
[23]; LRRK2, 10 μM
  % Inhibition mean: -12%
[23]; LRRK2 G2019S, 10 μM
  % Inhibition mean: 1%
[23]; LRRK2 I2020T, 10 μM
  % Inhibition mean: 1%
[23]; LRRK2 R1441C, 10 μM
  % Inhibition mean: 1%
[23]; SPHK1, 10 μM
  % Inhibition mean: -8%
[23]; SPHK2, 10 μM
  % Inhibition mean: 0%
[24]
  MLM Cli: 3.2 μL/min/mg protein
[24]; additional study (Table 5)
  Liver microsome stability Cli, MLM: 11.7 μL/min/mg protein
[24]; Table S4
  half-life: 2 h
[24]; Table S8
  half-life: 1.97 h
[25]
  HLM Cli: 1.5 μL/min/mg protein
[25]; additional study (Table 5)
  Liver microsome stability Cli, HLM: < 9.6 μL/min/mg protein
[25]; Table S4
  half-life: 2 h
[25]; Table S8
  half-life: > 2.42 h
[26]
  half-life: > 3.61 h
  hepatocyte CLint: < 6.4 µL/min/1e6 cells
[27]; 2% DMSO in PBS (with 10% solutol v/v), read-out: Solubility
  solubility: 3000 µg/mL (≈ 10.6 mM)
[27]; 20% w/v HPßCD in Water
  Mean Concentration of dose formulation: 1000 µg/mL
[27]; DMSO (2%v/v) + 10% v/v HPßCD in WFI (98% v/v/)
  Mean Concentration of dose formulation: 1020 µg/mL
[27]; DMSO (2%v/v) + 10% v/v Solutol in PBS (98% v/v)
  Mean Concentration of dose formulation: 960 µg/mL
[27]; dose formulations with cosolvents, read-out: aqueous solubility with cosolvents
  solubility: 1000 µg/mL (≈ 3.55 mM)
[28]; @10 μM
  kinases with >50% inhibition: 0/485
[28]; at 10 μM
  inhibition for all kinases of the panel: < 50%
CYP2D6; read-out: CYP inhibition IC50, 2D6, HLM
  IC50: > 50 µM
CYP2D6; read-out: IC50 CYP2D6/Dextromethorphan, (+)NADPH pre-incubation
  IC50: > 50 µM
CYP2D6; read-out: IC50 CYP2D6/Dextromethorphan, (-)NADPH pre-incubation
  IC50: > 50 µM
[29]
  mouse hepatocytes Cli: 19.4 μL/min/10^6 cells
[29]; mouse, hepatocytes
  half-life: 1.23 h

Source: paper PMC9150124, “Design of a Potent, Selective, and Brain-Penetrant Inhibitor of Wnt-Deactivating Enzyme Notum by Optimization of a Crystallographic Fragment Hit” (Journal of Medicinal Chemistry, 2022)
